Source: patent publication US20130072472A1, “N[…] ANSOLVATES” (DemeRx, Inc., priority 2011, published 2013)
Where a name gives a salt, the structure may show the parent alone.

Assays:
Format in all cases: physicochemical
[1] = Approximate ambient-temperature solubility, solvent addition method; conditions: thermodynamic from solid
Description: The approximate ambient-temperature solubilities of noribogaine hydrochloride Form A were measured in a variety of solvents and solvent mixtures using the solvent addition method (Table 2).
The solubility of noribogaine hydrochloride ansolvate were determined as tabulated below.

[2] = Thermogravimetric analysis (TGA); conditions: for TGA sharp weight loss / onset of probable decomposition: TGA thermogram
Description: Thermogravimetric analyses were performed using a TA Instruments Q5000 IR thermogravimetric analyzer. Temperature calibration was performed using nickel and Alumel™ Each sample was placed in an aluminum pan. The sample was hermetically sealed, the lid pierced, then inserted into the TO furnace. The furnace was heated under nitrogen.

[3] = Approximate aqueous solubility of noribogaine salt forms; conditions: water
[4] = Dynamic vapor sorption (DVS); conditions: for State of the solids after DVS sorption/desorption: post-DVS, 5 to 95 to 5% RH
Description: Dynamic vapor sorption (DVS) data were collected on a VTI SOA-100 Vapor Sorption Analyzer. NaCl and PVP were used as calibration standards. Samples were not dried prior to analysis. Sorption and desorption data were collected over a range from 5 to 95% RH at 10% RH increments under a nitrogen purge. The equilibrium criterion used for analysis was less than 0.0100% weight change in 5 minutes with a maximum equilibration time of 3 hours. Data were not corrected for the initial moisture content of the samples.

[5] = Polymorphic conversion of solvated form on stirring in EtOH/water or heating
From the text: Such a desolvation is surprising, given that it occurs upon stirring in another solvent, which comprises hydroxy groups and alkyl moieties as in MeOH. As described above, form F is a solvated polymorph that is obtained from MeOH.

[6] = Drying of solvated forms, gravimetric weight loss and XRPD; conditions: for gravimetric weight loss: hydrochloride
Description: Two other moisture absorbing, unstable, polymorphs of noribogaine hydrochloride, Forms F and G, which had mutually similar XRPD patterns were also identified. Form G was isolated from a slurry of Form A in MeOH at ambient temperature. Material G likely contains MeOH and water, and Form F (or Form II) is likely hydrated. […] A sharp weight loss at ˜312° C. indicated likely decomposition. Both Forms G and F are contemplated to readily pick up moisture from the atmosphere.

## CC[C@H]1CC2C[C@H]3c4[nH]c5ccc(O)cc5c4CCN(C2)C13 [HCl, Form A, noribogaine hydrochloride]
[1]; aqueous with cosolvent or surfactant or cyclodextrin, ACN:water 80:20, ambient temperature
  solubility: 9000 µg/mL
[1]; aqueous with cosolvent or surfactant or cyclodextrin, Acetone:water 50:50, ambient temperature
  solubility: 11000 µg/mL
[1]; aqueous with cosolvent or surfactant or cyclodextrin, TFE:water 50:50, ambient temperature
  solubility: 10000 µg/mL
[1]; organic solvent or mixture, Acetone, ambient temperature
  solubility: < 1000 µg/mL
[1]; organic solvent or mixture, CAN, ambient temperature
  solubility: < 1000 µg/mL
[1]; organic solvent or mixture, EtOAc, ambient temperature
  solubility: < 1000 µg/mL
[1]; organic solvent or mixture, EtOH, ambient temperature
  solubility: < 1000 µg/mL
[1]; organic solvent or mixture, HFIPA, ambient temperature
  solubility: 10000 µg/mL
[1]; organic solvent or mixture, MeOH, ambient temperature
  solubility: 2000 µg/mL
[1]; organic solvent or mixture, MeOH:THF 50:50, ambient temperature
  solubility: 1000 µg/mL
[1]; organic solvent or mixture, TFE, ambient temperature
  solubility: 4000 µg/mL
[1]; organic solvent or mixture, THF, ambient temperature
  solubility: < 1000 µg/mL
[1]; organic solvent or mixture, chloroform, ambient temperature
  solubility: < 1000 µg/mL
[1]; organic solvent or mixture, chloroform:EtOH 50:50, ambient temperature
  solubility: < 1000 µg/mL
[1]; organic solvent or mixture, p-dioxane, ambient temperature
  solubility: < 1000 µg/mL
[1]; Water, added all at once, stirred ~24 hours
  solubility: < 4000 µg/mL
[2]; listed as Form A, hydrochloride
  TGA sharp weight loss / onset of probable decomposition: ~316 °C
[2]; prior to ~316° C.
  TGA weight loss: negligible weight loss
[3]; hydrochloride
  Approx. Aqueous Solubility: 1000 to 4000 µg/mL
[4]; between 5 and 95% relative humidity
  DVS weight gain/loss: approximately 0.03%

## CC[C@H]1CC2C[C@H]3c4[nH]c5ccc(O)cc5c4CCN(C2)C13 [Phosphate, Form C, noribogaine phosphate]
[2]
  TGA sharp weight loss / onset of probable decomposition: 241 °C
[2]; from 30 to 140° C.
  TGA weight loss: approximately 1.6%
[3]
  Approx. Aqueous Solubility: 23000 µg/mL
[4]; between 5 and 95% RH
  DVS weight gain: approximately 3.3 wt %
[4]; equilibration to 5% RH
  DVS weight loss upon equilibration: approximately 1 wt %
[4]
  State of the solids after DVS sorption/desorption: remained Form C

## CC[C@H]1CC2C[C@H]3c4[nH]c5ccc(O)cc5c4CCN(C2)C13 [Form F, noribogaine hydrochloride]
[5]; heating
  Polymorphic form change upon heating: converts to the ansolvate form A
[5]; stirring in 9:1 ethyl alcohol and water
  Polymorphic form change upon stirring: converted to the ansolvate form A
[6]
  gravimetric weight loss: 4.1%
[2]; hydrochloride
  TGA sharp weight loss / onset of probable decomposition: ~312 °C

## CC[C@H]1CC2C[C@H]3c4[nH]c5ccc(O)cc5c4CCN(C2)C13 [Tosylate, Form B, tosylate salt of noribogaine]
[3]
  Approx. Aqueous Solubility: 3000 µg/mL

## CC[C@H]1CC2C[C@H]3c4[nH]c5ccc(O)cc5c4CCN(C2)C13 [Form G, noribogaine hydrochloride]
[6]
  Polymorphic form after weight loss, by XRPD: converted to Form A
[6]; listed as material G
  gravimetric weight loss: 7.95%

## CC[C@H]1CC2C[C@H]3c4[nH]c5ccc(O)cc5c4CCN(C2)C13 [Sulfate, Form D, noribogaine sulfate ansolvate]
[2]
  TGA sharp weight loss / onset of probable decomposition: approximately 274 °C
[2]; from approximately 160 to 245° C.
  TGA weight loss: 4.9 wt %
[3]
  Approx. Aqueous Solubility: >80000 µg/mL
[4]; between 75 and 95% RH
  DVS weight gain: approximately 26 wt %
[4]; listed as sulfate salt
  State of the solids after DVS sorption/desorption: deliquesced
[4]; up to 75% RH
  DVS weight gain: about 0.7 wt %
